Results as given in ChEMBL document CHEMBL2385026, “Identification of C-2 hydroxyethyl imidazopyrrolopyridines as potent JAK1 inhibitors with favorable physicochemical properties and high selectivity over JAK2” (J Med Chem, 2013).

How the values were obtained:
[1] = target: T1, Tyrosine-protein kinase JAK2 (Homo sapiens, UniProt O60674); format: cell-based, TF-1
[2] = target: T1, Tyrosine-protein kinase JAK2
[3] = target: T2, Tyrosine-protein kinase JAK1 (Homo sapiens, UniProt P23458)
[4] = Apparent permeability across apical to basolateral side in dog MDCK cells; format: ADME, cell-based, Canis lupus familiaris
[5] = Hepatic clearance in human hepatocytes after 1 to 4 hrs by LC/MS/MS analysis; format: ADME, cell-based, Liver, Hepatocyte
[6] = target: T2, Tyrosine-protein kinase JAK1; remark: listed apart in the source
[7] = target: T2, Tyrosine-protein kinase JAK1; remark: listed apart in the source
[8] = Hepatic clearance in human liver microsomes by LC/MS/MS analysis; format: ADME, Microsome

T2 sequence (P23458 whole entry): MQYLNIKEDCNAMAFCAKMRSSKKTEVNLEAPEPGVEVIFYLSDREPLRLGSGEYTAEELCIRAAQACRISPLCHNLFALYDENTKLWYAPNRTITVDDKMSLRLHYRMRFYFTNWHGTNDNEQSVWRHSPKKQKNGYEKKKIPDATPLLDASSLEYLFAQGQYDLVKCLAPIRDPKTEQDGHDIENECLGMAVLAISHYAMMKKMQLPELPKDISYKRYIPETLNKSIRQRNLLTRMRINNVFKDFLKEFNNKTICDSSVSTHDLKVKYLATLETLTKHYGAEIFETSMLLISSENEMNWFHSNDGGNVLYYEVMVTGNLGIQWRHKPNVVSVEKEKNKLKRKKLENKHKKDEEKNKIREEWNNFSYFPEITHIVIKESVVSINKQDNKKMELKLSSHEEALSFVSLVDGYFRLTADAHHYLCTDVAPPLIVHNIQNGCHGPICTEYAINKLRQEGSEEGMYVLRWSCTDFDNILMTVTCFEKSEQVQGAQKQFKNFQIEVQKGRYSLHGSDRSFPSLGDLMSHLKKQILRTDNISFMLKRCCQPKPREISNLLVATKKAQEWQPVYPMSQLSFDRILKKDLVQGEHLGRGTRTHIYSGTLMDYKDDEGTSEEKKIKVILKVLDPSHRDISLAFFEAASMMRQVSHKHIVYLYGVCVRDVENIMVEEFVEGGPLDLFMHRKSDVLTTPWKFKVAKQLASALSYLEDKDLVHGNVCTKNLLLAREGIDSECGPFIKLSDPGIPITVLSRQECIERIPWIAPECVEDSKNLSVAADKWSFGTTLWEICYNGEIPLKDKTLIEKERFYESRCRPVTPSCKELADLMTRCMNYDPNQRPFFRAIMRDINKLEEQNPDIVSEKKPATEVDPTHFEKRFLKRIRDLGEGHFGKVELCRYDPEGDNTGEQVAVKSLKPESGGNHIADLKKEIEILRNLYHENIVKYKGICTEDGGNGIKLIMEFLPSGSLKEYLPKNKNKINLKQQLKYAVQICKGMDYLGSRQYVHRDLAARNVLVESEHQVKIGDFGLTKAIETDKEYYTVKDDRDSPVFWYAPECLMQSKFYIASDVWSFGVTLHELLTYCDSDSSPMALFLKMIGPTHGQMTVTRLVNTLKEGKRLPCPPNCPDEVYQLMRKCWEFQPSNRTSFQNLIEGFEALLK
T1 sequence (O60674 whole entry): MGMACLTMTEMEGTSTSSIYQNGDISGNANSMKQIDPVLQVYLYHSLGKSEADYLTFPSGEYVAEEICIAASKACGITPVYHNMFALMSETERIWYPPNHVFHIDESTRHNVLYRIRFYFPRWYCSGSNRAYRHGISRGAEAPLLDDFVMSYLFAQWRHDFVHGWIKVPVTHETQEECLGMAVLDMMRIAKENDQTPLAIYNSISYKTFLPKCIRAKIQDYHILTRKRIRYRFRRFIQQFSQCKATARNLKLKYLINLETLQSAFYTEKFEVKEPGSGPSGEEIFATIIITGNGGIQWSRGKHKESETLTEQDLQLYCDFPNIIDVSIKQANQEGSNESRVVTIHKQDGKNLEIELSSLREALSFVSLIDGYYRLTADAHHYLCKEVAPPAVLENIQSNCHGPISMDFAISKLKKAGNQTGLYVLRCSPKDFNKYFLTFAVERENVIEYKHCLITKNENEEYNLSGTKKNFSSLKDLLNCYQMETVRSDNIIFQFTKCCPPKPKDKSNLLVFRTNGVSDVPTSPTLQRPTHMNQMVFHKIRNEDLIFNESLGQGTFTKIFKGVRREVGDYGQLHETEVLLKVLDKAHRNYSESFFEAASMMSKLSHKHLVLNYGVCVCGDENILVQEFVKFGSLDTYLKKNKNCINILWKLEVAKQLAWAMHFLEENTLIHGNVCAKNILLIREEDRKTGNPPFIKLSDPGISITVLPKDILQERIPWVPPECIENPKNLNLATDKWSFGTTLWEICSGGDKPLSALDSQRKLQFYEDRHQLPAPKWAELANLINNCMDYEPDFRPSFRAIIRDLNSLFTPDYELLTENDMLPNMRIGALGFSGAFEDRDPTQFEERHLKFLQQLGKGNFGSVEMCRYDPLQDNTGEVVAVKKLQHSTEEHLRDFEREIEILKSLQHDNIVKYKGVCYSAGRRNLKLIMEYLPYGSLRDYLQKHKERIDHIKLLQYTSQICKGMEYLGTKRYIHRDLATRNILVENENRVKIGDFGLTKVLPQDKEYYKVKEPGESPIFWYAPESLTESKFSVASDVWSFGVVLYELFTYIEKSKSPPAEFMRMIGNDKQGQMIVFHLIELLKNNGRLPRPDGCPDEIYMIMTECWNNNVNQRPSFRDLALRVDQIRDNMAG

EC50 [1]	Ki [2]	Ki [3]	Papp A→B [4]	CLhep predicted [5]	EC50 [6]	EC50 [7]	CLhep predicted [8]	Structure (SMILES)
5300 nM	90 nM	–	–	–	–	–	–	C[C@H](O)c1nc2cnc3[nH]ccc3c2n1C1CCCCC1
–	–	2 nM	15 ×10⁻⁶ cm/s	3.7 mL/min/kg	88 nM	330 nM	2.9 mL/min/kg	CCN1CCC(n2c([C@@H](C)O)nc3cnc4[nH]ccc4c32)C(F)(F)C1 (stereo partly drawn)
–	–	53 nM	–	16 mL/min/kg	–	–	18 mL/min/kg	C[C@@H](O)c1nc2cnc3[nH]ccc3c2n1[C@H]1CC[C@@H](NCC(F)(F)F)CC1
–	–	12 nM	–	–	380 nM	–	2.1 mL/min/kg	C[C@@H](O)c1nc2cnc3[nH]ccc3c2n1[C@H]1CC[C@@H](O)CC1
–	–	–	–	–	410 nM	730 nM	1.9 mL/min/kg	C[C@@H](O)c1nc2cnc3[nH]ccc3c2n1[C@H]1CC[C@H](O)CC1
1500 nM	18 nM	3.5 nM	23 ×10⁻⁶ cm/s	17 mL/min/kg	130 nM	1500 nM	5.3 mL/min/kg	OCCc1nc2cnc3[nH]ccc3c2n1C1CCCCC1
–	–	43 nM	–	–	–	–	5.2 mL/min/kg	C[C@@H](O)c1nc2cnc3[nH]ccc3c2n1[C@@H]1CCCN(C(=O)CC(F)(F)F)C1
–	–	–	22 ×10⁻⁶ cm/s	12 mL/min/kg	–	–	7.6 mL/min/kg	CC[C@@H](O)c1nc2cnc3[nH]ccc3c2n1C1CCCCC1
–	–	2.6 nM	25 ×10⁻⁶ cm/s	8.5 mL/min/kg	110 nM	820 nM	9.2 mL/min/kg	C[C@@H](O)c1nc2cnc3[nH]ccc3c2n1C1CCN(CC(F)(F)F)CC1
4400 nM	76 nM	13 nM	19 ×10⁻⁶ cm/s	–	330 nM	–	–	CC(C)(O)c1nc2cnc3[nH]ccc3c2n1C1CCCCC1
–	–	7.2 nM	–	–	320 nM	–	–	OC[C@H](O)c1nc2cnc3[nH]ccc3c2n1C1CCCCC1
–	–	5.2 nM	0.2 ×10⁻⁶ cm/s	–	8200 nM	–	1 mL/min/kg	C[C@@H](O)c1nc2cnc3[nH]ccc3c2n1[C@@H]1CCCN(C(=O)CC#N)C1
–	–	3.4 nM	1.9 ×10⁻⁶ cm/s	6.8 mL/min/kg	510 nM	320 nM	4.2 mL/min/kg	C[C@@H](O)c1nc2cnc3[nH]ccc3c2n1C1CCN(CCC#N)CC1
